These results are taken from PMC5509001, “Structure Modeling of Human Tyrosyl-DNA Phosphodiesterase 1 and Screening for Its Inhibitors” (Acta Naturae, 2017).

Molecules are shown by their SMILES.

As a reminder, the IC50 is the concentration that inhibits the measured activity by half.

This assay concerns the target T1, recombinant human Tdp1 (tyrosyl-DNA phosphodiesterase 1) (Homo sapiens, UniProt Q9NUW8).
T1 construct: recombinant from plasmid pET 16B Tdp1 in Escherichia coli
In words: real-time fluorescence biosensor (FAM-oligonucleotide-BHQ1) cleavage. In kind it is biochemical. The text has this: real-time fluorescence biosensor (FAM-oligonucleotide-BHQ1) cleavage on recombinant human Tdp1 (tyrosyl-DNA phosphodiesterase 1)

T1 sequence (Q9NUW8 whole entry): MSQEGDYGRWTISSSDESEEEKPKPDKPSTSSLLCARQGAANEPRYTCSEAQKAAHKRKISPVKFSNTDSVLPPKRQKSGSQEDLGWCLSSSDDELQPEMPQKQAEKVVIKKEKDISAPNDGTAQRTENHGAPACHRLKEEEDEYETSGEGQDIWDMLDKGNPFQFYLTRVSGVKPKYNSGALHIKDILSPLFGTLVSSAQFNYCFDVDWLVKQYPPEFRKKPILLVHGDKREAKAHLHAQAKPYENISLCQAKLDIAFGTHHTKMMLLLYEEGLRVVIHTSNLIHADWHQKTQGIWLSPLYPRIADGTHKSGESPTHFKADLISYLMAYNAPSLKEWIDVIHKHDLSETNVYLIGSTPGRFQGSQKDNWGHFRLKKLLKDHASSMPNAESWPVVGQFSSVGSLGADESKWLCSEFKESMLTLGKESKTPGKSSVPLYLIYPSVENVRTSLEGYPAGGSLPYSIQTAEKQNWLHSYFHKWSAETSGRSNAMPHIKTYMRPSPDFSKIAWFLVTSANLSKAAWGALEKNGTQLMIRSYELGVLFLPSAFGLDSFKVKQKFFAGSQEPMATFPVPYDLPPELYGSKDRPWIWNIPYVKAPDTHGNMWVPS

For `O=S(=O)(O)CCSc1nc2ccccc2s1` [STK370528], the IC50 is 83 ± 24 µM.
Under `O=S(=O)(O)CCCSc1nc2ccccc2[nH]1` [STK376552] stands 686 ± 14 µM.
